ChEMBL document CHEMBL3727344, “2-fluoro-benzenesulfonamide compounds as RAF kinase modulators” (2014)

How the values were obtained:
[1] = target: T1, Serine/threonine-protein kinase A-Raf (Homo sapiens, UniProt P10398); test: Inhibition of A-Raf (unknown origin)
T1 sequence (P10398 whole entry): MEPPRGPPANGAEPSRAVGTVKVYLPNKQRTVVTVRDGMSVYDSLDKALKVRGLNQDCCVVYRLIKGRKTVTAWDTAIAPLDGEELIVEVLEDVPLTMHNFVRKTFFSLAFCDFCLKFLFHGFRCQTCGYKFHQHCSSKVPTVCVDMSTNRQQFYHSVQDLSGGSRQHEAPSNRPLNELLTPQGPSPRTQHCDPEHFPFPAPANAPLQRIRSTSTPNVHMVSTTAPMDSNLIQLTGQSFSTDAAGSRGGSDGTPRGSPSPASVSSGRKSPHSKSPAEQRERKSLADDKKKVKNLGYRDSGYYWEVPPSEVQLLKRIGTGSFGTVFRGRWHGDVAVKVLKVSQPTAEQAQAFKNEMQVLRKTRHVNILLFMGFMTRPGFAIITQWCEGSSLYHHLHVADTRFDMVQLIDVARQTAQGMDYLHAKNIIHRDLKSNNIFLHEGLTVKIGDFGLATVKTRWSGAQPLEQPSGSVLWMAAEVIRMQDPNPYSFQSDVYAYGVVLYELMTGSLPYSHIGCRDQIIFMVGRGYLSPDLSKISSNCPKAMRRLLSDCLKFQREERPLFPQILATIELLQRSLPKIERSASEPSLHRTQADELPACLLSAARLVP

[2] = target: Serine/threonine-protein kinase B-raf (Homo sapiens, UniProt P15056); test: Inhibition of B-Raf (unknown origin)
[3] = target: Serine/threonine-protein kinase B-raf (Homo sapiens, UniProt P15056, V600E); test: Inhibition of B-Raf V600E mutant (unknown origin)
[4] = target: RAF proto-oncogene serine/threonine-protein kinase (Homo sapiens, UniProt P04049); test: Inhibition of c-Raf 1 (unknown origin)
[5] = target: Macrophage colony-stimulating factor 1 receptor (Homo sapiens, UniProt P07333); test: Inhibition of Fms (unknown origin)
[6] = target: Tyrosine-protein kinase BTK (Homo sapiens, UniProt Q06187); test: Inhibition of Btk (unknown origin)
[7] = target: Vascular endothelial growth factor receptor 2 (Homo sapiens, UniProt P35968); test: Inhibition of Kdr (unknown origin)
[8] = target: Mast/stem cell growth factor receptor Kit (Homo sapiens, UniProt P10721); test: Inhibition of Kit (unknown origin)
[9] = target: Proto-oncogene tyrosine-protein kinase Src (Homo sapiens, UniProt P12931); test: Inhibition of Src (unknown origin)
[10] = target: High affinity nerve growth factor receptor (Homo sapiens, UniProt P04629); test: Inhibition of TrkA (unknown origin)
[11] = target: Protein-tyrosine kinase 6 (Homo sapiens, UniProt Q13882); test: Inhibition of Brk (unknown origin)
[12] = target: Tyrosine-protein kinase CSK (Homo sapiens, UniProt P41240); test: Inhibition of Csk (unknown origin)
Focal adhesion kinase 1 = Focal adhesion kinase 1 (Homo sapiens, UniProt Q05397); test: Inhibition of Fak (unknown origin)
[13] = target: Tyrosine-protein kinase Lck (Homo sapiens, UniProt P06239); test: Inhibition of Lck (unknown origin)
[14] = target: Tyrosine-protein kinase Lyn (Homo sapiens, UniProt P07948); test: Inhibition of Lyn (unknown origin)
[15] = target: Tyrosine-protein kinase Yes (Homo sapiens, UniProt P07947); test: Inhibition of Yes (unknown origin)

Measured: IC50

Serine/threonine-protein kinase B-raf (Homo sapiens, UniProt P15056, V600E), sequence (P15056 2-766 V600E limits assumed): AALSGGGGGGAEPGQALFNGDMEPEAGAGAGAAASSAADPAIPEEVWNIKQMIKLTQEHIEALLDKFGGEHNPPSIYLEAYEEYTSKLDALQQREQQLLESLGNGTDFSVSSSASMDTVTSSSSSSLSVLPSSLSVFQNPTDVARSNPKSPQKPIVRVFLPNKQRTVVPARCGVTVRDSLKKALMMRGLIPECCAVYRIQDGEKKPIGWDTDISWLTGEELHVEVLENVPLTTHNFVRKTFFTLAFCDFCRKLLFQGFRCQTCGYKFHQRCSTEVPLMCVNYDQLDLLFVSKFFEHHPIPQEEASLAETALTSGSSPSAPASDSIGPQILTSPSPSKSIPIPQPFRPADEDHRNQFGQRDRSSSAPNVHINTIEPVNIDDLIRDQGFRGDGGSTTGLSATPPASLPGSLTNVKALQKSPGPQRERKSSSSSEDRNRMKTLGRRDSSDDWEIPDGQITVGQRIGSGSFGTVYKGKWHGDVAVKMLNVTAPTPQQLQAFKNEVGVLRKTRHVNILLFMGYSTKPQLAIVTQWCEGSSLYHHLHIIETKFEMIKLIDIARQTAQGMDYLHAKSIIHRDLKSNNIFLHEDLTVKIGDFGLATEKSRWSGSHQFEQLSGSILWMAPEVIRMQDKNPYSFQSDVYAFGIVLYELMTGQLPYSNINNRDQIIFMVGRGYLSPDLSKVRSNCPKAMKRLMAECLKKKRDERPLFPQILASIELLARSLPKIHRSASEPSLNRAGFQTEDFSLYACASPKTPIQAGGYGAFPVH
Serine/threonine-protein kinase B-raf (Homo sapiens, UniProt P15056), sequence (P15056 whole entry): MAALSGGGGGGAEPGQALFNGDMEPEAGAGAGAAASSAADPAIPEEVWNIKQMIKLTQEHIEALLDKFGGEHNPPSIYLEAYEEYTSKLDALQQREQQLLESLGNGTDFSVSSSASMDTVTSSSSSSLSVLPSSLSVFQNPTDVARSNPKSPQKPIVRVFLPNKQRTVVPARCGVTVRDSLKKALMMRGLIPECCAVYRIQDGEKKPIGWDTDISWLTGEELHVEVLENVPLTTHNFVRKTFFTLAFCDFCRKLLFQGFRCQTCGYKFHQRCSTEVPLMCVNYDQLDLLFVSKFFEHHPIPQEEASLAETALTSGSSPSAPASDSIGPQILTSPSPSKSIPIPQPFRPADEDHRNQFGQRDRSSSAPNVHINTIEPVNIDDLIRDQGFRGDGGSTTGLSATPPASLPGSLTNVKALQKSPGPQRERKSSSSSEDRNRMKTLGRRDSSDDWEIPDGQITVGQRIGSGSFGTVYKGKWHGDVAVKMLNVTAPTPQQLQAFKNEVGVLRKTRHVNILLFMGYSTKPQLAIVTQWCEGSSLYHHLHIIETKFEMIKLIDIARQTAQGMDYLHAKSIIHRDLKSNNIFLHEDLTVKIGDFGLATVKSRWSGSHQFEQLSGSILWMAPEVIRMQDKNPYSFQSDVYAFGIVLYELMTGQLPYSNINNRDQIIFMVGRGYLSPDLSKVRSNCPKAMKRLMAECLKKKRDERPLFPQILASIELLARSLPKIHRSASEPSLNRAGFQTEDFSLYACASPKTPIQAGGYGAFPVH
RAF proto-oncogene serine/threonine-protein kinase, sequence (P04049 whole entry): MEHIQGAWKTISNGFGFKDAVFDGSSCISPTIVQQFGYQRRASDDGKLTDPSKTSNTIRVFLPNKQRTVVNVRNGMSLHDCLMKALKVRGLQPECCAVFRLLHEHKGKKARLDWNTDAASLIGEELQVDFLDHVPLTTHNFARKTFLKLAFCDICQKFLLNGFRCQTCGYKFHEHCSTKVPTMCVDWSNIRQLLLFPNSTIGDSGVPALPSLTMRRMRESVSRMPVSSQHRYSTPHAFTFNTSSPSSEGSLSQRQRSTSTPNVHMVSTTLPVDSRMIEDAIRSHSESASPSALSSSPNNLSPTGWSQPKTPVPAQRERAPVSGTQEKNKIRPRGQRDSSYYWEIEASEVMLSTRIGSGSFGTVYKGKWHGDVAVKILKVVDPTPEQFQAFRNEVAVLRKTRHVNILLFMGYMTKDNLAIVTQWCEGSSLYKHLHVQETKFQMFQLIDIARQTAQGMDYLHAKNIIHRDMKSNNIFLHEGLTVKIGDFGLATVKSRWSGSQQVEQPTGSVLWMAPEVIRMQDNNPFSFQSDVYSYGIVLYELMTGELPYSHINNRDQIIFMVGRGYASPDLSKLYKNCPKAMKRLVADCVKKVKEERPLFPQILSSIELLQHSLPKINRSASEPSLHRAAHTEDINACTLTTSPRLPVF
Proto-oncogene tyrosine-protein kinase Src, sequence (P12931 2-536 limits assumed): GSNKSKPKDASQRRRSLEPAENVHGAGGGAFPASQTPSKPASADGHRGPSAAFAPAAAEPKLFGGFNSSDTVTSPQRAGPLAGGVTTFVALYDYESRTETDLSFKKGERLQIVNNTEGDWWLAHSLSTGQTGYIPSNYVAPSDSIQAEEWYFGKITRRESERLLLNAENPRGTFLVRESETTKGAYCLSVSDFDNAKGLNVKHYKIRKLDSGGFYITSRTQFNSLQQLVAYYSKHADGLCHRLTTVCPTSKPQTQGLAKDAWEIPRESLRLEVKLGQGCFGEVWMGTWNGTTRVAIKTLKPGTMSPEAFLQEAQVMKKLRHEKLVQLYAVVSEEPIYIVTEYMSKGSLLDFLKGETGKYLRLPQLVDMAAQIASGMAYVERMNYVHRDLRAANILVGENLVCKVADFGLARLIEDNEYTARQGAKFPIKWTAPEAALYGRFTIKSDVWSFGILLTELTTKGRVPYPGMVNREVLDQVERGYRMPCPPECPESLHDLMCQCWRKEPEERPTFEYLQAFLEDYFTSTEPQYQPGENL
Macrophage colony-stimulating factor 1 receptor, sequence (P07333 whole entry): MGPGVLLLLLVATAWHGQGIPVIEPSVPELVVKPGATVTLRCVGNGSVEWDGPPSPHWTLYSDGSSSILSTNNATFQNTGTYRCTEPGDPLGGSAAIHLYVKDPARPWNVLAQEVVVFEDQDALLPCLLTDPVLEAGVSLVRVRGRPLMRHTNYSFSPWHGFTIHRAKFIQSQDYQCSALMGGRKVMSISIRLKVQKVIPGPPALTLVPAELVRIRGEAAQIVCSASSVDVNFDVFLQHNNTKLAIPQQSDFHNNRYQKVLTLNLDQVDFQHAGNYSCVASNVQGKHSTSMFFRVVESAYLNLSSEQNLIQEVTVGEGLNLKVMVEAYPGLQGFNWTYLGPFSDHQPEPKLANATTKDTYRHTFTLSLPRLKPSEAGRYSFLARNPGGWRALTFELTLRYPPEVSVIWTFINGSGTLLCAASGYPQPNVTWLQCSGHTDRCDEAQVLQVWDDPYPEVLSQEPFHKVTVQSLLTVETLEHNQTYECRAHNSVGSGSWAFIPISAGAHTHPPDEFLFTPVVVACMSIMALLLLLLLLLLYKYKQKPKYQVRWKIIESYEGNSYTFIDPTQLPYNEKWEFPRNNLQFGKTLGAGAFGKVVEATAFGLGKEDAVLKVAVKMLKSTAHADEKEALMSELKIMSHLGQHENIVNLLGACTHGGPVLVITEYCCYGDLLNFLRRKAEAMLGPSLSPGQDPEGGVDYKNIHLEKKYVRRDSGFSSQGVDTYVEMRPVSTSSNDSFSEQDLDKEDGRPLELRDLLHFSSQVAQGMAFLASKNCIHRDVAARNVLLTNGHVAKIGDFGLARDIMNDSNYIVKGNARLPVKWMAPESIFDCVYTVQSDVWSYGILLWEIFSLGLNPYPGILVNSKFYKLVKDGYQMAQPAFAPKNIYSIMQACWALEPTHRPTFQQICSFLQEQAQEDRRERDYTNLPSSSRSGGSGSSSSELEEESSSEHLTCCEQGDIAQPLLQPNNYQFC
High affinity nerve growth factor receptor, sequence (P04629 whole entry): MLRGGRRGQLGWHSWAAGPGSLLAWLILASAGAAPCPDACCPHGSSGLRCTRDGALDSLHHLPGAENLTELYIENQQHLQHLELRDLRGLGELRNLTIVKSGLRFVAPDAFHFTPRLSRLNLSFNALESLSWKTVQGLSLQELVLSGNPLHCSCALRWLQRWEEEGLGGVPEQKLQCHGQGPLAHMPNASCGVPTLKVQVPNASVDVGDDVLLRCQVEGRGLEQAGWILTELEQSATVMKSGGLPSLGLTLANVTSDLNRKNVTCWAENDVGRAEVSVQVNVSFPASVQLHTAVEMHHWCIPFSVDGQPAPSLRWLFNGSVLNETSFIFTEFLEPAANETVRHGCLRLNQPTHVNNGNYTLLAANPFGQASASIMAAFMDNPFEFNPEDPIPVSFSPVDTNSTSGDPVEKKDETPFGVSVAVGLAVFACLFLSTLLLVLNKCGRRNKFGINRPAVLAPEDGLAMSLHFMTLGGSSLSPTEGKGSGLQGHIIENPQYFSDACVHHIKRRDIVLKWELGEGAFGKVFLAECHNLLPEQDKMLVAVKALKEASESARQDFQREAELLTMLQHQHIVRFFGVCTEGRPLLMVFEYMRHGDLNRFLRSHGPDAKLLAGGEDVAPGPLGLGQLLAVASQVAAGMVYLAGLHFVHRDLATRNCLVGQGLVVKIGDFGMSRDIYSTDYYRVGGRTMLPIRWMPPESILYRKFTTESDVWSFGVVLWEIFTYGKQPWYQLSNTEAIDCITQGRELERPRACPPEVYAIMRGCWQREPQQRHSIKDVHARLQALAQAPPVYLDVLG
Tyrosine-protein kinase Lck, sequence (P06239 whole entry): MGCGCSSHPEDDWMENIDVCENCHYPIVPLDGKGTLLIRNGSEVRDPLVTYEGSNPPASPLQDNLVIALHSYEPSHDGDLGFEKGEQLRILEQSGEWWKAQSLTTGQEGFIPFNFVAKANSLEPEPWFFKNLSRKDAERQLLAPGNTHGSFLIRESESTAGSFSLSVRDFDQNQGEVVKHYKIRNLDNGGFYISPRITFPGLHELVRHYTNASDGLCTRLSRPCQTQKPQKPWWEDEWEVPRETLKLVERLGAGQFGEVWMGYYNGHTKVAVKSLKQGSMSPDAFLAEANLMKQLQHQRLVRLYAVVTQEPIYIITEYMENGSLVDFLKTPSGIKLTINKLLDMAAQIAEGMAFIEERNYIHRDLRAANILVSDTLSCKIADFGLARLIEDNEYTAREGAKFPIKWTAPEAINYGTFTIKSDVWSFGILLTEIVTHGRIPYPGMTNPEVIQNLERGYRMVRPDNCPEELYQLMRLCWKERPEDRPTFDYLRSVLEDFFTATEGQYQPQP

CCCS(=O)(=O)Nc1ccc(F)c(C(=O)Nc2cnc3ccccc3c2)c1F
≤ 10 µM: [1] | [2] | [3] | [4]

CCCS(=O)(=O)Nc1ccc(Cl)c(C(=O)Nc2nnc(Cc3ccc(Cl)cc3)s2)c1F
≤ 10 µM: [1]

CCCS(=O)(=O)Nc1ccc(Cl)c(C(=O)Nc2cnc3ccccn23)c1F
≤ 10 µM: [2] | [3]

CCCS(=O)(=O)Nc1ccc(Cl)c(C(=O)Nc2cnc3ccccc3c2)c1F
≤ 10 µM: [1] | [2] | [3] | [4]

CCCS(=O)(=O)Nc1ccc(Cl)c(C(=O)Nc2ccc(NC3CC3)nc2)c1F
≤ 10 µM: [1] | [2] | [3] | [4]

CCCS(=O)(=O)Nc1ccc(Cl)c(C(=O)Nc2ccc(NCc3cccs3)nc2)c1F
≤ 10 µM: [1] | [2] | [3] | [4]

CCCS(=O)(=O)Nc1ccc(Cl)c(C(=O)Nc2ccc(NCc3ccccc3)nc2)c1F
≤ 10 µM: [1] | [2] | [3] | [4]

CCCS(=O)(=O)Nc1ccc(Cl)c(C(=O)Nc2cc(-c3ccc(Cl)cc3)n[nH]2)c1F
≤ 10 µM: [5] | [1]

CCCS(=O)(=O)Nc1ccc(Cl)c(C(=O)Nc2ccc(Nc3ncc(C)s3)nc2)c1F
≤ 10 µM: [1] | [2] | [3] | [4] | [6] | [7] | [8] | [9] | [10]

CCCS(=O)(=O)Nc1ccc(F)c(COc2cnc3ccccc3c2)c1F
≤ 10 µM: [5] | [1] | [3]

CCCS(=O)(=O)Nc1ccc(Cl)c(C(=O)Nc2ccc(NC3CCCC3)nc2)c1F
≤ 10 µM: [1] | [4]

CCCS(=O)(=O)Nc1ccc(F)c(NCc2cnc3ccccc3c2)c1F
≤ 10 µM: [1] | [3]

CCCS(=O)(=O)Nc1ccc(Cl)c(C(=O)Nc2ccc(NC(=O)N3CCCC3)nc2)c1F
≤ 10 µM: [1]

CCCS(=O)(=O)Nc1ccc(Cl)c(C(=O)Nc2cnc(NC(C)=O)nc2)c1F
≤ 10 µM: [1] | [2] | [3] | [4]

CCCS(=O)(=O)Nc1ccc(F)c(CNc2ccc(NC(C)=O)nc2)c1F
≤ 10 µM: [1] | [3] | [4]

CCCS(=O)(=O)Nc1ccc(F)c(CNc2cnc3ccccc3c2)c1F
≤ 10 µM: [1] | [3] | [4]

CCCS(=O)(=O)Nc1ccc(F)c(C(=O)Nc2ccc(NC(C)=O)nc2)c1F
≤ 10 µM: [1] | [2] | [3] | [4]

CCCS(=O)(=O)Nc1ccc(Cl)c(C(=O)Nc2ccc(NC(C)=O)nc2)c1F
not listed: [5] | [6] | [7] | [8]
≤ 10 µM: all other assays above

CCCS(=O)(=O)Nc1ccc(Cl)c(C(=O)Nc2ccc(NC(C)C)nc2)c1F
≤ 10 µM: [1] | [3]

CCCS(=O)(=O)Nc1ccc(Cl)c(C(=O)Nc2cccnc2)c1F
≤ 10 µM: [1] | [3] | [4]
